≈ marks a conversion by molar mass, not a printed value. Non-standard residues stand in square brackets, D forms with d. Residues, ends and D or L forms follow the SMILES beside them. *: point of attachment. Octanoyl = CCCCCCCC(=O)*; Hexanoyl = CCCCCC(=O)*; Ahx = NCCCCCC(=O)O; βAla = NCCC(=O)O
Tests used:
[1] = test system: Staphylococcus aureus ATCC 29213; test: MIC, NCCLS M7-A6 broth microdilution, cation-adjusted Mueller Hinton broth (Table 9, no superscript); format: cell-based; conditions: ATCC 29213
Experimental: (§1) Cation-adjusted Mueller Hinton broth was used in the broth microdilution method. In brief, a log-phase bacterial suspension was used to inoculate wells of a 96-well plate so that the final inoculum for each well contained 5×10^5 to 1×10^6 CFU/milliliter. […] Plates were incubated overnight at 37° C. The lowest concentration of peptide that contained no visible growth as evidenced by a lack of turbidity when compared to the control (no peptide) was determined as the MIC. Unless otherwise noted, MIC values listed in Table 9 utilized this method of MIC determination.

Salmonella dublin (Lane) = test: MIC, NCCLS M7-A6 broth microdilution (Table 9, no superscript); format: cell-based
Experimental: as §1

Compound | MIC S. aureus [1] | MIC S. dublin (Salmonella dublin (Lane))
CSCC[C@H](NC(=O)[C@H](Cc1ccccc1)NC(=O)[C@H](CC(N)=O)NC(=O)[C@H](CCCNC(=N)N)NC(=O)[C@H](CO)NC(=O)[C@H](Cc1c[nH]c2ccccc12)NC(=O)[C@H](CC(=O)O)NC(=O)[C@H](CCCNC(=N)N)NC(=O)[C@H](Cc1c[nH]c2ccccc12)NC(=O)[C@H](CCCNC(=N)N)NC(=O)[C@H](CO)NC(=O)[C@H](CCCNC(=N)N)NC(=O)CNC(=O)[C@@H](NC(=O)[C@H](CCCNC(=N)N)NC(=O)[C@H](CO)NC(=O)[C@@H](NC(=O)[C@H](CCCNC(=N)N)NC(=O)[C@@H](NC(C)=O)[C@@H](C)O)C(C)C)[C@@H](C)O)C(=O)N[C@@H](CCCNC(=N)N)C(=O)N[C@@H](C)C(=O)N[C@@H](C)C(=O)N[C@@H](CCCCN)C(=O)N[C@@H](CCCCN)C(=O)N[C@@H](CCCCN)C(=O)N[C@@H](CCCCN)C(N)=O [Peptide 5] (Ac-TRVSRTGRSRWRDWSRNFMRAAKKKK-NH2) | >64 µg/mL | >64 µg/mL
CC[C@H](C)[C@H](NC(=O)[C@@H](NC(=O)[C@H](CC(C)C)NC(=O)[C@H](CO)NC(=O)[C@@H](NC(=O)[C@H](CCCNC(=N)N)NC(=O)[C@H](Cc1ccc(O)cc1)NC(=O)[C@H](CC(=O)O)NC(=O)[C@H](CCCNC(=N)N)NC(C)=O)[C@@H](C)O)[C@@H](C)O)C(=O)N[C@H](C(=O)N[C@@H](CCC(N)=O)C(=O)N[C@@H](CCCCN)C(=O)NCCCCCC(=O)N[C@H](C(=O)N[C@@H](CCCNC(=N)N)C(=O)N[C@H](C(=O)N[C@@H](CO)C(=O)N[C@@H](CCCNC(=N)N)C(=O)N[C@H](C(=O)NCC(=O)N[C@@H](CCCNC(=N)N)C(=O)N[C@@H](CO)C(=O)N[C@@H](CCCNC(=N)N)C(=O)N[C@@H](Cc1c[nH]c2ccccc12)C(=O)N[C@@H](CCCNC(=N)N)C(=O)N[C@@H](CC(=O)O)C(=O)N[C@@H](Cc1c[nH]c2ccccc12)C(=O)N[C@@H](CO)C(=O)N[C@@H](CCCNC(=N)N)C(=O)N[C@@H](CC(N)=O)C(=O)N[C@@H](Cc1ccccc1)C(=O)N[C@@H](CCSC)C(=O)N[C@@H](CCCNC(=N)N)C(N)=O)[C@@H](C)O)C(C)C)[C@@H](C)O)C(C)C [Peptide 28, Ac-RDYRTSLTIVQKXTRVSRTGRSRWRDWSRNFMR-NH2 X = aminohexanoic acid] (Ac-RDYRTSLTIVQK[Ahx]TRVSRTGRSRWRDWSRNFMR-NH2) | >64 µg/mL | >64 µg/mL
CSCC[C@H](NC(=O)[C@H](Cc1ccccc1)NC(=O)[C@H](CC(N)=O)NC(=O)[C@H](CCCNC(=N)N)NC(=O)[C@H](CO)NC(=O)[C@H](Cc1c[nH]c2ccccc12)NC(=O)[C@H](CC(=O)O)NC(=O)[C@H](CCCNC(=N)N)NC(=O)[C@H](Cc1c[nH]c2ccccc12)NC(=O)[C@H](CCCNC(=N)N)NC(=O)[C@H](CO)NC(=O)[C@H](CCCNC(=N)N)NC(=O)CNC(=O)[C@@H](NC(=O)[C@H](CCCNC(=N)N)NC(=O)[C@H](CO)NC(=O)[C@@H](NC(=O)[C@H](CCCNC(=N)N)NC(=O)[C@@H](NC(=O)CCN)[C@@H](C)O)C(C)C)[C@@H](C)O)C(=O)N[C@@H](CCCNC(=N)N)C(=O)N[C@@H](C)C(=O)N[C@@H](C)C(N)=O [Peptide 18] (H-[βAla]TRVSRTGRSRWRDWSRNFMRAA-NH2) | >64 µg/mL | >64 µg/mL
CSCC[C@H](NC(=O)[C@H](Cc1ccccc1)NC(=O)[C@H](CC(N)=O)NC(=O)[C@H](CCCNC(=N)N)NC(=O)[C@H](CO)NC(=O)[C@H](Cc1c[nH]c2ccccc12)NC(=O)[C@H](CC(=O)O)NC(=O)[C@H](CCCNC(=N)N)NC(=O)[C@H](Cc1c[nH]c2ccccc12)NC(=O)[C@H](CCCNC(=N)N)NC(=O)[C@H](CO)NC(=O)[C@H](CCCNC(=N)N)NC(=O)CNC(=O)[C@@H](NC(=O)[C@H](CCCNC(=N)N)NC(=O)[C@H](CO)NC(=O)[C@@H](NC(=O)[C@H](CCCNC(=N)N)NC(=O)[C@@H](NC(C)=O)[C@@H](C)O)C(C)C)[C@@H](C)O)C(=O)N[C@@H](CCCNC(=N)N)C(=O)N[C@@H](C)C(=O)N[C@@H](C)C(=O)N[C@@H](CCCNC(=N)N)C(=O)N[C@@H](CCCNC(=N)N)C(=O)N[C@@H](CCCNC(=N)N)C(=O)N[C@@H](CCCNC(=N)N)C(N)=O [Peptide 9] (Ac-TRVSRTGRSRWRDWSRNFMRAARRRR-NH2) | >64 µg/mL | >64 µg/mL
CCCCCCCC(=O)N[C@@H](CCCNC(=N)N)C(=O)N[C@@H](CO)C(=O)N[C@@H](CCCNC(=N)N)C(=O)N[C@@H](Cc1c[nH]c2ccccc12)C(=O)N[C@@H](CCCNC(=N)N)C(=O)N[C@@H](CC(=O)O)C(=O)N[C@H](C(=O)N[C@@H](C)C(=O)N[C@@H](CCCNC(=N)N)C(=O)N[C@@H](CC(N)=O)C(=O)N[C@@H](Cc1ccccc1)C(=O)N[C@@H](CCSC)C(=O)N[C@@H](CCCNC(=N)N)C(N)=O)C(C)C [Peptide 203, Octyl-RSRWRDVARNFMR-NH2] (Octanoyl-RSRWRDVARNFMR-NH2) | 32 µg/mL (≈ 17.1 µM) | >64 µg/mL
CCCCCC(=O)NCCCC[C@@H](NC(=O)[C@@H](CCCNC(=N)N)NC(=O)[C@@H](CCSC)NC(=O)[C@@H](Cc1ccccc1)NC(=O)[C@@H](CC(N)=O)NC(=O)[C@@H](CCCNC(=N)N)NC(=O)[C@@H](C)NC(=O)[C@H](NC(=O)[C@@H](CC(=O)O)NC(=O)[C@@H](CCCNC(=N)N)NC(=O)[C@@H](Cc1c[nH]c2ccccc12)NC(=O)[C@@H](CCCNC(=N)N)NC(=O)[C@@H](CO)NC(=O)[C@H](N)CCCNC(=N)N)C(C)C)C(N)=O [Peptide 197, H2N-rsrwrdvarnfmrk(Hexanyl)-NH2] (H-[dR][dS][dR][dW][dR][dD][dV][dA][dR][dN][dF][dM][dR][dK](Hexanoyl)-NH2) | >64 µg/mL | >64 µg/mL
CSCC[C@H](NC(=O)[C@H](Cc1ccccc1)NC(=O)[C@H](CC(N)=O)NC(=O)[C@H](CCCNC(=N)N)NC(=O)[C@H](CO)NC(=O)[C@H](Cc1c[nH]c2ccccc12)NC(=O)[C@H](CC(=O)O)NC(=O)[C@H](CCCNC(=N)N)NC(=O)[C@H](Cc1c[nH]c2ccccc12)NC(=O)[C@H](CCCNC(=N)N)NC(=O)[C@H](CO)NC(=O)[C@H](CCCNC(=N)N)NC(=O)CNC(=O)[C@@H](NC(=O)[C@H](CCCNC(=N)N)NC(=O)[C@H](CO)NC(=O)[C@@H](NC(=O)[C@H](CCCNC(=N)N)NC(=O)[C@@H](NC(C)=O)[C@@H](C)O)C(C)C)[C@@H](C)O)C(=O)N[C@@H](CCCNC(=N)N)C(=O)N[C@@H](C)C(=O)N[C@@H](C)C(=O)N[C@@H](CCCNC(=N)N)C(=O)N[C@@H](CCCNC(=N)N)C(=O)N[C@@H](CCCNC(=N)N)C(=O)N[C@@H](CCCNC(=N)N)C(=O)N[C@@H](CCCNC(=N)N)C(=O)N[C@@H](CCCNC(=N)N)C(N)=O [Peptide 11] (Ac-TRVSRTGRSRWRDWSRNFMRAARRRRRR-NH2) | 64 µg/mL (≈ 17.2 µM) | 32 µg/mL (≈ 8.58 µM)

— patent US20050282755A1, “Compositions having antimicrobial activity and uses thereof” (priority 2004, published 2005)
